Measured values published in the CheMixHub viscosity set.

Test: xn = mol fraction of the nth substance listed

Cc1ccccc1 + CCCO
Conditions	viscosity [mPa·s]
293.15 K, 100 kPa, x2 = 0.125	0.611
293.15 K, 100 kPa, x2 = 0.25	0.636
293.15 K, 100 kPa, x2 = 0.375	0.747
293.15 K, 100 kPa, x2 = 0.5	0.875
293.15 K, 100 kPa, x2 = 0.625	1.055
293.15 K, 100 kPa, x2 = 0.75	1.312
293.15 K, 100 kPa, x2 = 0.875	1.685
298.15 K, 100 kPa, x2 = 0.0553	0.5596
298.15 K, 100 kPa, x2 = 0.1089	0.572
298.15 K, 100 kPa, x2 = 0.1987	0.5972
298.15 K, 100 kPa, x2 = 0.319	0.6607
298.15 K, 100 kPa, x2 = 0.4308	0.7379
298.15 K, 100 kPa, x2 = 0.5349	0.7998
298.15 K, 100 kPa, x2 = 0.632	0.9538
298.15 K, 100 kPa, x2 = 0.723	1.116
298.15 K, 100 kPa, x2 = 0.8083	1.265
298.15 K, 100 kPa, x2 = 0.8884	1.563
298.15 K, 100 kPa, x2 = 0.9639	1.825
298.15 K, 101 kPa, x2 = 0.1	0.558
298.15 K, 101 kPa, x2 = 0.2	0.588
298.15 K, 101 kPa, x2 = 0.3	0.6389
298.15 K, 101 kPa, x2 = 0.4	0.7091
298.15 K, 101 kPa, x2 = 0.5	0.801
298.15 K, 101 kPa, x2 = 0.6	0.9211
298.15 K, 101 kPa, x2 = 0.7	1.08
298.15 K, 101 kPa, x2 = 0.8	1.292
298.15 K, 101 kPa, x2 = 0.9	1.576
303 K, 101 kPa, x1 = 0.1006	1.367
303 K, 101 kPa, x1 = 0.2012	1.171
303 K, 101 kPa, x1 = 0.3009	1.025
303 K, 101 kPa, x1 = 0.3981	0.902
303 K, 101 kPa, x1 = 0.5016	0.785
303 K, 101 kPa, x1 = 0.6052	0.699
303 K, 101 kPa, x1 = 0.7001	0.645
303 K, 101 kPa, x1 = 0.8095	0.598
303 K, 101 kPa, x1 = 0.9011	0.546
303.15 K, 101.33 kPa, x1 = 0.1141	1.376
303.15 K, 101.33 kPa, x1 = 0.1926	1.182
303.15 K, 101.33 kPa, x1 = 0.2912	0.982
303.15 K, 101.33 kPa, x1 = 0.3778	0.866
303.15 K, 101.33 kPa, x1 = 0.4778	0.761
303.15 K, 101.33 kPa, x1 = 0.6242	0.651
303.15 K, 101.33 kPa, x1 = 0.7421	0.587
303.15 K, 101.33 kPa, x1 = 0.8737	0.541
303.15 K, 101.33 kPa, x1 = 0.9517	0.527
308.15 K, 100 kPa, x2 = 0.0553	0.5017
308.15 K, 100 kPa, x2 = 0.1089	0.5107
308.15 K, 100 kPa, x2 = 0.1987	0.5293
308.15 K, 100 kPa, x2 = 0.319	0.572
308.15 K, 100 kPa, x2 = 0.4308	0.6289
308.15 K, 100 kPa, x2 = 0.5349	0.6996
308.15 K, 100 kPa, x2 = 0.632	0.7945
308.15 K, 100 kPa, x2 = 0.723	0.8952
308.15 K, 100 kPa, x2 = 0.8083	1.019
308.15 K, 100 kPa, x2 = 0.8884	1.24
308.15 K, 100 kPa, x2 = 0.9639	1.422
308.15 K, 101.33 kPa, x1 = 0.1141	1.251
308.15 K, 101.33 kPa, x1 = 0.1926	1.078
308.15 K, 101.33 kPa, x1 = 0.2912	0.899
308.15 K, 101.33 kPa, x1 = 0.3778	0.795
308.15 K, 101.33 kPa, x1 = 0.4778	0.703
308.15 K, 101.33 kPa, x1 = 0.6242	0.608
308.15 K, 101.33 kPa, x1 = 0.7421	0.553
308.15 K, 101.33 kPa, x1 = 0.8737	0.514
308.15 K, 101.33 kPa, x1 = 0.9517	0.499
313.15 K, 100 kPa, x2 = 0.125	0.479
313.15 K, 100 kPa, x2 = 0.25	0.495
313.15 K, 100 kPa, x2 = 0.375	0.554
313.15 K, 100 kPa, x2 = 0.5	0.625
313.15 K, 100 kPa, x2 = 0.625	0.728
313.15 K, 100 kPa, x2 = 0.75	0.876
313.15 K, 100 kPa, x2 = 0.875	1.087
313.15 K, 101.33 kPa, x1 = 0.1141	1.15
313.15 K, 101.33 kPa, x1 = 0.1926	0.99
313.15 K, 101.33 kPa, x1 = 0.2912	0.83
313.15 K, 101.33 kPa, x1 = 0.3778	0.736
313.15 K, 101.33 kPa, x1 = 0.4778	0.655
313.15 K, 101.33 kPa, x1 = 0.6242	0.57
313.15 K, 101.33 kPa, x1 = 0.7421	0.521
313.15 K, 101.33 kPa, x1 = 0.8737	0.491
313.15 K, 101.33 kPa, x1 = 0.9517	0.476
